For eight compounds, EC50 results are on record in patent US20260265233A1, “BENZOTHIOPHENE DERIVATIVES AS RXFP1 AGONISTS” (BRISTOL-MYERS SQUIBB COMPANY, priority 2021, published 2026).

In the assay the target is T1, human RXFP1 (Homo sapiens, UniProt Q9HBX9).
T1 construct: expressed in transfected cells
T1 sequence (Q9HBX9 1-757): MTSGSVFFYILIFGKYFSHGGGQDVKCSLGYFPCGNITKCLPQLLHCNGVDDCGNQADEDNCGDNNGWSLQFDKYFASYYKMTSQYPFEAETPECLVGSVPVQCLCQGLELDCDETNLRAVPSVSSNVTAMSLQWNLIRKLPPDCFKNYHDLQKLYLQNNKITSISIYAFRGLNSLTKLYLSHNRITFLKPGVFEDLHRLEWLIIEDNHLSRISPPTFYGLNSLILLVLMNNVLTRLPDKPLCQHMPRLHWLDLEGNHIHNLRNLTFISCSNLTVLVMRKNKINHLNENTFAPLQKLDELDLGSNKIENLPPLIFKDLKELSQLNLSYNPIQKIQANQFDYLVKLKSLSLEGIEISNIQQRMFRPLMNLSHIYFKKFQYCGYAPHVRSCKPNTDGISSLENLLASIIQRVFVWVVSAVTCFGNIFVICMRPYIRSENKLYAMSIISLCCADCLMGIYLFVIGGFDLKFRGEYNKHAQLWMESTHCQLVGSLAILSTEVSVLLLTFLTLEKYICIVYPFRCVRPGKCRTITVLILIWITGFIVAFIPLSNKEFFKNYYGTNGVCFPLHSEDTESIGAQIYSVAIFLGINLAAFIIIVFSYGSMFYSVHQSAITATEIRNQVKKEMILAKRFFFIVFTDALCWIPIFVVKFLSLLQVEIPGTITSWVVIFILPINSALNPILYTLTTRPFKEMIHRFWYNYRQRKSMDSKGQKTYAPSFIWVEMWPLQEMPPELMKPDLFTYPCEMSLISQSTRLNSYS
Kind of assay: hRXFP1 HEK293 cAMP assay (HTRF). To be noted: HEK293 cells stably expressing human RXFP1; 30 min at rt; intracellular cAMP by HTRF. It is filed as cell-based. Here is the method:
RXFP1 Cyclic Adenosine Monophosphate (cAMP) Assays. Human embryonic kidney cells 293 (HEK293) cells and HEK293 cells stably expressing human RXFP1, were cultured in MEM medium supplemented with 10% qualified FBS, and 300 μg/ml hygromycin (Life Technologies). Cells were dissociated and suspended in assay buffer. The assay buffer was HBSS buffer (with calcium and magnesium) containing 20 mM HEPES, 0.05% BSA, and 0.5 mM IBMX. Cells (3000 cells per well, except 1500 cell per well for HEK293 cells stably expressing human RXFP1) were added to 384-well Proxiplates (Perkin-Elmer). Cells were immediately treated with test compounds in DMSO (2% final) at final concentrations in the range of 0.010 nM to 50 μM. Cells were incubated for 30 min at rt. The level of intracellular cAMP was determined using the HTRF HiRange cAMP assay reagent kit (Cisbio) according to manufacturer's instructions. Solutions of cryptate conjugated anti-cAMP and d2 fluorophore-labelled cAMP were made in a supplied lysis buffer separately. Upon completion of the reaction, the cells were lysed with equal volume of the d2-cAMP solution and anti-cAMP solution. After a 1 h rt incubation, time-resolved fluorescence intensity was measured using the Envision (Perkin-Elmer) at 400 nm excitation and dual emission at 590 nm and 665 nm. A calibration curve was constructed with an external cAMP standard at concentrations ranging from 2.7 μM to 0.1 pM by plotting the fluorescent intensity ratio from 665 nm emission to the intensity from the 590 nm emission against cAMP concentrations. The potency and activity of a compound to […] cAMP production was then determined by fitting to a 4-parametric logistic equation from a plot of cAMP level versus compound concentrations.
The examples disclosed below were tested in the human RXFP1 (hRXFP1) HEK293 cAMP assay described above and found to have agonist activity.
For `COc1ccc(C2CCCC(C)(O)C2)cc1C(=O)Nc1c(C(=O)Nc2ccc(F)c(C(F)(F)F)c2)sc2cc(C(F)(F)F)ccc12` (single isomer, unassigned) [Example 35, N-(4-fluoro-3-(trifluoromethyl)phenyl)-3-(5-(3-hydroxy-3-methylcyclohexyl)-2-methoxybenzamido)-6-(trifluoromethyl)benzo[b]thiophene-2-carboxamide], the EC50 is 794 nM. As for `COc1ccc(C2CCCC(C)(O)C2)cc1C(=O)Nc1c(C(=O)Nc2ccc(F)c(C(F)(F)F)c2)sc2cc(C(F)(F)F)ccc12` (single isomer, unassigned) [Example 36, N-(4-fluoro-3-(trifluoromethyl)phenyl)-3-(5-(3-hydroxy-3-methylcyclohexyl)-2-methoxybenzamido)-6-(trifluoromethyl)benzo[b]thiophene-2-carboxamide], the figure is 244 nM; as for `COc1ccc(C2CCC(C)(O)CC2)cc1C(=O)Nc1c(C(=O)Nc2ccc(F)c(C(F)(F)F)c2)sc2cc(C(F)(F)F)ccc12` (single isomer, unassigned) [Example 37, N-(4-fluoro-3-(trifluoromethyl)phenyl)-3-(5-(4-hydroxy-4-methylcyclohexyl)-2-methoxybenzamido)-6-(trifluoromethyl)benzo[b]thiophene-2-carboxamide], 158 nM; as for `COc1ccc(C2CCC(C)(O)CC2)cc1C(=O)Nc1c(C(=O)Nc2ccc(F)c(C(F)(F)F)c2)sc2cc(C(F)(F)F)ccc12` (single isomer, unassigned) [Example 38, N-(4-fluoro-3-(trifluoromethyl)phenyl)-3-(5-(4-hydroxy-4-methylcyclohexyl)-2-methoxybenzamido)-6-(trifluoromethyl)benzo[b]thiophene-2-carboxamide], 194 nM. As for `COc1ccc(CCCO)cc1C(=O)Nc1c(C(=O)NC2CCCC(C(F)(F)F)C2)sc2cc(C(F)(F)F)ccc12` (single isomer, unassigned) [Example 44, 3-(5-(3-hydroxypropyl)-2-methoxybenzamido)-6-(trifluoromethyl)-N-(3-(trifluoromethyl)cyclohexyl) benzo[b]thiophene-2-carboxamide], the figure is 3740 nM; as for `COc1ccc(C2CC2C(=O)O)cc1C(=O)Nc1c(C(=O)Nc2ccc(F)c(C(F)(F)F)c2)sc2cc(C(F)(F)F)ccc12` (single isomer, unassigned) [Example 47, 2-(3-((2-((4-fluoro-3-(trifluoromethyl)phenyl)carbamoyl)-6-(trifluoromethyl)benzo[b]thiophen-3-yl)carbamoyl)-4-methoxyphenyl) cyclopropane-1-carboxylic acid], 1060 nM; as for `COc1ccc(C2CC2C(=O)O)cc1C(=O)Nc1c(C(=O)Nc2ccc(F)c(C(F)(F)F)c2)sc2cc(C(F)(F)F)ccc12` (single isomer, unassigned) [Example 48, 2-(3-((2-((4-fluoro-3-(trifluoromethyl)phenyl)carbamoyl)-6-(trifluoromethyl)benzo[b]thiophen-3-yl)carbamoyl)-4-methoxyphenyl) cyclopropane-1-carboxylic acid], 58.4 nM. In the case of `COc1ccc(C2=NOC3CN(CC(C)(C)O)CC23)cc1C(=O)Nc1c(C(=O)Nc2ccc(F)c(C(F)(F)F)c2)sc2cc(C(F)(F)F)ccc12` (single isomer, unassigned) [Example 53, N-(4-fluoro-3-(trifluoromethyl)phenyl)-3-(5-(5-(2-hydroxy-2-methylpropyl)-3a, 5,6,6a-tetrahydro-4H-pyrrolo[3,4-d]isoxazol-3-yl)-2-methoxybenzamido)-6-(trifluoromethyl)benzo[b]thiophene-2-carboxamide], it took 71 nM to reach a half-maximal effect (EC50).
